Results reported in ChEMBL document CHEMBL1134516, “Probing the interaction of dengue virus envelope protein with heparin: assessment of glycosaminoglycan-derived inhibitors” (J Med Chem, 2001).

Tested on: Dengue virus
Experiment: Dissociation constant for Dengue virus envelope protein binding by surface plasmon resonance
Format: functional

`Cc1ccc(C(=O)Nc2ccc(S(=O)(=O)O)c3cc(S(=O)(=O)O)cc(S(=O)(=O)O)c23)cc1NC(=O)c1cccc(NC(=O)Nc2cccc(C(=O)Nc3cc(C(=O)Nc4ccc(S(=O)(=O)O)c5cc(S(=O)(=O)O)cc(S(=O)(=O)O)c45)ccc3C)c2)c1` [SURAMIN] was tested, and the Kd was 0.04 µM.
